According to patent US9302999B2, “Substituted triazoles as herbicides” (E. I. DU PONT DE NEMOURS AND COMPANY, priority 2012, dated 2016):

Legend:
Format in all cases: in vivo
corn (Zea mays) = test: Test A pre-/postemergence: corn; settings: for Corn plant response rating: Postemergence; for Plant response rating, Corn: Preemergence
Summary of the method: (§1)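 Soil medium was loam blended with sand; treatments pre- and postemergence were applied concurrently, postemergence at one- to two-leaf stage. Approximately ten days in greenhouse preceded visual comparison with untreated controls, scored 0 (no effect) to 100 (complete control).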

[1] = tested on: pigweed (Amaranthus retroflexus); test: Test A pre-/postemergence: pigweed; settings: for Pigweed plant response rating: Postemergence; for Plant response rating, Pigweed: Preemergence
Summary of the method: as §1

[2] = tested on: sedge, umbrella (small-flower umbrella sedge, Cyperus difformis); test: Test C flooded paddy test: sedge, umbrella; settings: Flood (flooded paddy test), visual rating after 13 to 15 days, scale 0 to 100 (0 no effect, 100 complete control)
Summary of the method: (§2)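 Plants were grown to the 2-leaf stage, pots flooded to 3 cm above soil, and test compounds applied directly to the paddy water, with that depth held throughout. After 13 to 15 days in a greenhouse, injury was visually rated against controls on a 0 (no effect) to 100 (complete control) scale.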

[3] = tested on: ducksalad (Heteranthera limosa); test: Test C flooded paddy test: ducksalad; settings: Flood (flooded paddy test), visual rating after 13 to 15 days, scale 0 to 100 (0 no effect, 100 complete control)
Summary of the method: as §2

[4] = tested on: velvetleaf (Abutilon theophrasti); test: Test A pre-/postemergence: velvetleaf; settings: for Velvetleaf plant response rating: Postemergence; for Plant response rating, Velvetleaf: Preemergence
Summary of the method: as §1

[5] = tested on: crabgrass, large (large crabgrass, Digitaria sanguinalis); test: Test A pre-/postemergence: crabgrass, large; settings: for Crabgrass, Large plant response rating: Postemergence; for Plant response rating, Crabgrass, Large: Preemergence
Summary of the method: as §1

[6] = tested on: barnyardgrass (Echinochloa crus-galli); test: Test C flooded paddy test: barnyardgrass; settings: Flood (flooded paddy test), visual rating after 13 to 15 days, scale 0 to 100 (0 no effect, 100 complete control)
Summary of the method: as §2

rice (Oryza sativa) = test: Test C flooded paddy test: rice; settings: Flood (flooded paddy test), visual rating after 13 to 15 days, scale 0 to 100 (0 no effect, 100 complete control)
Summary of the method: as §2

[7] = tested on: morningglory (Ipomoea spp.); test: Test A pre-/postemergence: morningglory; settings: for Morningglory plant response rating: Postemergence; for Plant response rating, Morningglory: Preemergence
Summary of the method: as §1

[8] = tested on: foxtail, giant (giant foxtail, Setaria faberii); test: Test A pre-/postemergence: foxtail, giant; settings: for Foxtail, Giant plant response rating: Postemergence; for Plant response rating, Foxtail, Giant: Preemergence
Summary of the method: as §1

[9] = tested on: wheat (Triticum aestivum); test: Test A pre-/postemergence: wheat; settings: for Wheat plant response rating: Postemergence; for Plant response rating, Wheat: Preemergence
Summary of the method: as §1

[10] = tested on: barnyardgrass (Echinochloa crus-galli); test: Test A pre-/postemergence: barnyardgrass; settings: for Barnyardgrass plant response rating: Postemergence; for Plant response rating, Barnyardgrass: Preemergence
Summary of the method: as §1

[11] = 125 g ai/ha, 0 to 100 scale, 0 is no effect, 100 is complete control
[12] = 500 g ai/ha, visual rating on 0 to 100 scale (0 no effect, 100 complete control), approximately ten days
[13] = 125 g ai/ha, 0 to 100 scale (0 no effect, 100 complete control)
[14] = 500 g ai/ha, 0 to 100 scale, 0 is no effect, 100 is complete control

Row | Compound | Corn plant response rating (corn (Zea mays); [11]) | Corn plant response rating (corn (Zea mays); [12]) | Plant response rating, Corn (corn (Zea mays); [13]) | Plant response rating, Corn (corn (Zea mays); [14]) | Pigweed plant response rating [1, 11] | Pigweed plant response rating [1, 12] | Plant response rating, Pigweed [1, 13] | Plant response rating, Sedge, Umbrella ([2]; 62 g ai/ha) | Plant response rating, Sedge, Umbrella ([2]; 250 g ai/ha) | Plant response rating, Ducksalad ([3]; 62 g ai/ha) | Plant response rating, Ducksalad ([3]; 250 g ai/ha) | Velvetleaf plant response rating [4, 11] | Velvetleaf plant response rating [4, 12] | Plant response rating, Velvetleaf [4, 13] | Plant response rating, Velvetleaf [4, 14] | Crabgrass, Large plant response rating [5, 11] | Crabgrass, Large plant response rating [5, 12] | Plant response rating, Crabgrass, Large [5, 13] | Plant response rating, Crabgrass, Large [5, 14] | Plant response rating, Barnyardgrass ([6]; 62 g ai/ha) | further results
1 | Cc1nn(-c2cnc(Cl)cn2)nc1C(=O)c1cccc(C(F)(F)F)c1 [Compound 50] | 0 | 10 | 0 | 0 | 10 | 20 | 0 | 0 | 0 | 0 | 0 | 0 | 10 | 0 | 0 | 0 | 10 | 10 | 20 | 0 | Plant response rating, Pigweed [1, 14]: 10; Plant response rating, Barnyardgrass ([6]; 250 g ai/ha): 0; Plant response rating, Rice (rice (Oryza sativa); 62 g ai/ha): 0; Plant response rating, Rice (rice (Oryza sativa); 250 g ai/ha): 0; Morningglory plant response rating [7, 11]: 0; Morningglory plant response rating [7, 12]: 10; Plant response rating, Morningglory [7, 13]: 0; Plant response rating, Morningglory [7, 14]: 0; Foxtail, Giant plant response rating [8, 11]: 0; Foxtail, Giant plant response rating [8, 12]: 10; Plant response rating, Foxtail, Giant [8, 13]: 10; Plant response rating, Foxtail, Giant [8, 14]: 40; Wheat plant response rating [9, 11]: 0; Wheat plant response rating [9, 12]: 0; Plant response rating, Wheat [9, 13]: 0; Plant response rating, Wheat [9, 14]: 0; Barnyardgrass plant response rating [10, 11]: 0; Barnyardgrass plant response rating [10, 12]: 10; Plant response rating, Barnyardgrass [10, 13]: 0; Plant response rating, Barnyardgrass [10, 14]: 0
2 | Cc1nn(-c2ccc(C(F)(F)F)cc2)nc1Cc1cnn(CC(F)(F)F)c1 [Compound 51] | 0 | 10 | 0 | 0 | 10 | 60 | 0 | 0 | 0 | 0 | 0 | 0 | 10 | 0 | 0 | 0 | 10 | 0 | 0 | 0 | Plant response rating, Pigweed [1, 14]: 0; Plant response rating, Barnyardgrass ([6]; 250 g ai/ha): 0; Plant response rating, Rice (rice (Oryza sativa); 62 g ai/ha): 0; Plant response rating, Rice (rice (Oryza sativa); 250 g ai/ha): 0; Morningglory plant response rating [7, 11]: 0; Morningglory plant response rating [7, 12]: 10; Plant response rating, Morningglory [7, 13]: 0; Plant response rating, Morningglory [7, 14]: 0; Foxtail, Giant plant response rating [8, 11]: 0; Foxtail, Giant plant response rating [8, 12]: 10; Plant response rating, Foxtail, Giant [8, 13]: 0; Plant response rating, Foxtail, Giant [8, 14]: 10; Wheat plant response rating [9, 11]: 0; Wheat plant response rating [9, 12]: 0; Plant response rating, Wheat [9, 13]: 0; Plant response rating, Wheat [9, 14]: 0; Barnyardgrass plant response rating [10, 11]: 0; Barnyardgrass plant response rating [10, 12]: 10; Plant response rating, Barnyardgrass [10, 13]: 0; Plant response rating, Barnyardgrass [10, 14]: 0
3 | Cc1nn(-c2ccc(Cl)cc2)nc1Oc1ccnc(C(F)(F)F)c1 [Compound 52] | 10 | 20 | 0 | 10 | 100 | 100 | 100 | 65 | 85 | 80 | 95 | 30 | 100 | 0 | 10 | 50 | 100 | 100 | 100 | 40 | Plant response rating, Barnyardgrass ([6]; 250 g ai/ha): 75; Plant response rating, Rice (rice (Oryza sativa); 62 g ai/ha): 15; Plant response rating, Rice (rice (Oryza sativa); 250 g ai/ha): 40; Morningglory plant response rating [7, 11]: 40; Morningglory plant response rating [7, 12]: 100; Plant response rating, Morningglory [7, 13]: 10; Plant response rating, Morningglory [7, 14]: 20; Foxtail, Giant plant response rating [8, 11]: 50; Foxtail, Giant plant response rating [8, 12]: 100; Plant response rating, Foxtail, Giant [8, 13]: 100; Plant response rating, Foxtail, Giant [8, 14]: 100; Wheat plant response rating [9, 11]: 10; Wheat plant response rating [9, 12]: 20; Plant response rating, Wheat [9, 13]: 0; Plant response rating, Wheat [9, 14]: 0; Barnyardgrass plant response rating [10, 11]: 20; Barnyardgrass plant response rating [10, 12]: 70; Plant response rating, Barnyardgrass [10, 13]: 20; Plant response rating, Barnyardgrass [10, 14]: 90
